Assay results from patent US20220387602A1, “BIFUNCTIONAL DEGRADERS AND THEIR METHODS OF USE” (NOVARTIS AG, priority 2019, published 2022).

How the values were obtained:
CRBN [1] = molecular target: T1, CRBN (Homo sapiens, UniProt Q96SW2); assay: CRBN displacement assay Format 2b (as 2a, quadruplicate, PHERAstar reader); type: binding
Experimental: Assay conditions are similar to Format 2a with the exception of • a. The assay run in quadruplicate • b. PHERAstar reader (BMG Labtech, Offenburg, Germany) was used instead of an Envision reader • c. For the determination of AC50 values, assays were performed at room temperature in 1536-well plates with a total assay volume of […] per well. The test compounds were dissolved and diluted in 100% DMSO. For the assays, 30 nL of DMSO or compound solution were added per well, followed by the addition of 3 μL protein solution (80 nM protein in 1× assay buffer).

CRBN [2] = molecular target: T1, CRBN; assay: CRBN displacement assay Format 2a (fluorescence polarization, 1536-well, Envision reader); type: binding
In short: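 Competition format: compound first equilibrated with CRBN protein (nominally 40 nM) for 45 min at RT, then challenged 45 min with 5 nM BodipyFL-conjugated lenalidomide tracer. FP measured at 480 nm excitation/535 nm emission; AC50 derived by four-parameter logistic fit of %-saturation.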

CRBN [3] = molecular target: T1, CRBN; assay: CRBN displacement assay Format 1 (fluorescence polarization, BodipyFL-lenalidomide probe Compound HH); type: binding
In short: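 Fluorescence polarization competition: CRBN (nominal 100 nM final) pre-incubated 45 min at room temperature with compound, then BodipyFL-lenalidomide probe added (5 nM final; 0.9% DMSO).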

BTK = molecular target: T2, BTK (Homo sapiens, UniProt Q06187); assay: BTK-GFP protein abundance flow cytometry assay in HEK293A; type: cell-based; conditions: 24 h; for BTK degradation Amax: % protein remaining at the concentration at which maximum degradation is seen, HEK293A; for DC50: concentration at which 50% maximal degradation was observed, HEK293A BTK-GFP sensor cells
T2 construct: the BTK open reading frame (ORF) was first shuttled from a pcDNA-DEST40-BTK vector; expressed in transfected cells; host or cells: HEK293A (Invitrogen R70507), lentiviral transduction, blasticidin selection
T2 sequence (Q06187 whole entry): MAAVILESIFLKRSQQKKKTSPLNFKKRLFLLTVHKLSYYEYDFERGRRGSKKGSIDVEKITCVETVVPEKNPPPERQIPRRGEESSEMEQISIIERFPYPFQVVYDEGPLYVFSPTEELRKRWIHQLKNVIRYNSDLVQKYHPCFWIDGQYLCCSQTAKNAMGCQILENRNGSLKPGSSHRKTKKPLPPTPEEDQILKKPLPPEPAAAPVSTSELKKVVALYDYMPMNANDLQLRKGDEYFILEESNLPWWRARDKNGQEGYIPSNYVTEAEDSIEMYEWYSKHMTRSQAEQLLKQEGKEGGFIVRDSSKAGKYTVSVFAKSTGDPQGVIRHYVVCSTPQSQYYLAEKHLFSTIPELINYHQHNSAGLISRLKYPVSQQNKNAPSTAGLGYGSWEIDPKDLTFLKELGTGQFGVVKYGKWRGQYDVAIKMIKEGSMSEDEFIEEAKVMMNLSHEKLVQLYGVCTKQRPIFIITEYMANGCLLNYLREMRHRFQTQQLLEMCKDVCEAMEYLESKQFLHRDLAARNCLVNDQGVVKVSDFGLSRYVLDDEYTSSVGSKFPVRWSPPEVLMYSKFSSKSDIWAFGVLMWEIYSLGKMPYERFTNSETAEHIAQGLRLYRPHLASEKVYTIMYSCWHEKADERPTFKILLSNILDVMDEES
In short: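 HEK293A cells stably expressing bicistronic BTK-GFP-iresRFP were treated 24 h at 37° C with 10-point 1:3 dilutions from 10 μM, DMSO at 0.1%. GFP was read by flow cytometry as median of 5,000 single cells, scaled between RFP-only cells (0%) and DMSO controls (100%). DC50 = concentration at 50% degradation; Amax = % protein remaining at maximal degradation.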

hTNNI3K WT = molecular target: T3, hTNNI3K WT (Homo sapiens, UniProt Q59H18); assay: TNNI3K degradation in HEK293 cells overexpressing hTNNI3K WT (western blot); type: cell-based; conditions: FIGS. 4A-4B; for TNNI3K degradation (western blot): concentration dependent; for concentration from which no residual TNNI3K was detected: western blot, 18 hours
T3 construct: expressed in transfected cells
T3 sequence (Q59H18 1-835): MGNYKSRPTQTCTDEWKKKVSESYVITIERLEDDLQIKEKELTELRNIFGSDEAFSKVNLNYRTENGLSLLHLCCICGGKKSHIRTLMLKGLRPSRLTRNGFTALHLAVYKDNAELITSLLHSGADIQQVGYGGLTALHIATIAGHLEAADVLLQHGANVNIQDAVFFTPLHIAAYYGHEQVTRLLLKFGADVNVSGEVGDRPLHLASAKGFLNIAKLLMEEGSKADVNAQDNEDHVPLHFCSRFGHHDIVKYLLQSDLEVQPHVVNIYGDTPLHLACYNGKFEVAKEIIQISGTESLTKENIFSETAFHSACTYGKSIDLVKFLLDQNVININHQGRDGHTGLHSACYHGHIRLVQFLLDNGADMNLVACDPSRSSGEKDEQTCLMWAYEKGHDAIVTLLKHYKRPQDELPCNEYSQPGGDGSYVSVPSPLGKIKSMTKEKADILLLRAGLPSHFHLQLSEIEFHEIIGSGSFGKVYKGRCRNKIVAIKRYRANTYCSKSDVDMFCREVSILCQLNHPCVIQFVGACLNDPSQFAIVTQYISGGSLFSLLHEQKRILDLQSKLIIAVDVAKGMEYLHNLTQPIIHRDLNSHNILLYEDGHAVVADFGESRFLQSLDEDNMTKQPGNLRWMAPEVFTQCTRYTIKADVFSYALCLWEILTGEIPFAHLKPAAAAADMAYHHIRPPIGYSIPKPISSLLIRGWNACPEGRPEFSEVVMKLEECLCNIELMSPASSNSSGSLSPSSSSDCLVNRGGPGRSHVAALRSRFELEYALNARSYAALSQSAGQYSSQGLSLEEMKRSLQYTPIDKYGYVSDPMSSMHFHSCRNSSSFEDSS
Experimental: HEK293-hTNNI3K stable cells were seeded at 400,000 cells/well in 6-well plate and incubated at 37° C. and 5% CO2 overnight in DMEM containing 10% FBS. The following day growth media was replaced with low-serum media containing DMEM with 0.5% FBS and incubated at 37° C. and 5% CO2 overnight. Following overnight serum starvation, cells were treated with compounds at 20 μM starting dose with 1:5 serial dilution prepared in low-serum media. Media was removed and compounds were added to 6-well plate at 2 mL per well and cells were incubated at 37° C. and 5% CO2 for 18 hours. Following compound treatment cells were washed with cold DPBS containing protease/phosphatase inhibitor cocktail (Thermo #1861284) and lysed in RIPA buffer on ice (Pierce #89900, also containing protease/phosphatase inhibitors). Following sonication and frequent vortexing at 4° C. for approximately 1 hour, samples were centrifuged at 14,000 rpm for 20 minutes. Supernatants were collected for protein samples. Protein concentration was determined using BioRad DC Protein Assay (FIGS. 3A and 3C).
Samples for western blotting were prepared in loading buffer (Thermo #NP0007) and 8 μg protein was loaded per lane in 4-12% Novex Bis-Tris gel and run at 60V for approximately 1 hour. Gels were transferred to PVDF membrane using semi-dry transfer device iBlot 2 from Thermo Scientific. Blots were blocked using Superblock T20 blocking solution for 2 hours at room temperature (Thermo #37536). Blots were then incubated with primary antibodies overnight with gentle shaking at 4° C. (TNNI3K #ab136954 and Beta-Actin CST #3700) at 1:1000 and 1:2000 dilution respectively. Following overnight primary antibody incubation, blots were washed 3 times on rocker for 5 minutes each with 1×TBS-T at room temperature. Blots were then incubated with secondary HRP-anti-rabbit at 1:2000 dilution (CST #7074) for 2 hours at room temperature. Blots were then washed with 1×TBS-T 3 times on rocker for 5 minutes each. Protein bands were detected using BioRad Chemi-Doc station and Supersignal West Dura substrate (Thermo #34075). Protein bands were quantified using ImageJ software. TNNI3K bands were normalized to beta-actin loading control. Data are graphed by fold change of cpd over DMSO control.
Here the amount of total normalized TNNI3K expression levels were monitored upon compound treatment in a dose dependent manner. IC50 refers to the concentration at which 50% reduction in protein expression was observed.

[4] = concentration at which 50% of reference probe Compound HH is displaced, quadruplicate, read-out: CRBN AC50 [μM] Format 2b
[5] = concentration at which 50% of reference probe Compound HH is displaced, 40 nM protein, 5 nM probe, read-out: CRBN AC50 [μM] Format 2a

T1 sequence (Q96SW2 whole entry): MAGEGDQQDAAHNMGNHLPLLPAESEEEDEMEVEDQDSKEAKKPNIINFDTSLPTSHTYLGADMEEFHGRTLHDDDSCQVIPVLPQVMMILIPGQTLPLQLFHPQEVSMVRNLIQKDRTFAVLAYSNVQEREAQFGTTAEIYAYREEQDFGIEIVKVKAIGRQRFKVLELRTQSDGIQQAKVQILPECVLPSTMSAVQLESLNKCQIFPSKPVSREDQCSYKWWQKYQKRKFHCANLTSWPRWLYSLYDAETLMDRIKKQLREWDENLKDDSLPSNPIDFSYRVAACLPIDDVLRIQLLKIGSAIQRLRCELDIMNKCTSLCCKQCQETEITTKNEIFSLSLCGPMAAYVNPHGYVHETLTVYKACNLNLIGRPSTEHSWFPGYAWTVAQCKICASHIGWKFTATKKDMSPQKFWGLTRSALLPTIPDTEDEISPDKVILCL

CCOC(=O)c1cncc(N2CCC(=O)NC2=O)c1 [ILB-78, Ethyl 5-(2,4-dioxotetrahydropyrimidin-1(2H)-yl)nicotinate]
AC50 (CRBN [1]; [4]): 5.07 µM
AC50 (CRBN [2]; [5]): 5.72 µM

CC(O)c1ccc(N2CCC(=O)NC2=O)cn1 (centres unmarked) [ILB-75, 1-(6-(1-Hydroxyethyl)pyridin-3-yl)dihydropyrimidine-2,4(1H,3H)-dione]
AC50 (CRBN [1]): 28.7 µM
AC50 (CRBN [2]): > 50 µM
CRBN Amax* (% at 50 μM) Format 2a (CRBN [2]; greatest effect as % displacement of the reference probe at the highest concentration tested (50 μM), given where AC50 >50 μM, 45 min): 40%

O=C1CCN(c2cncc(Cl)c2)C(=O)N1 [ILB-73, 1-(5-Chloropyridin-3-yl)dihydropyrimidine-2,4(1H,3H)-dione]
AC50 (CRBN [1]): 11.9 µM
AC50 (CRBN [2]): 15 µM

CCOC(=O)Cc1cncc(N2CCC(=O)NC2=O)c1 [ILB-71, Ethyl 2-(5-(2,4-dioxotetrahydropyrimidin-1(2H)-yl)pyridin-3-yl)acetate]
AC50 (CRBN [1]; [4]): 8 µM
AC50 (CRBN [2]; [5]): 6.01 µM

O=C1CCN(c2cn[nH]c2)C(=O)N1 [ILB-79, 1-(1H-Pyrazol-4-yl)dihydropyrimidine-2,4(1H,3H)-dione]
AC50 (CRBN [1]): 6.78 µM
AC50 (CRBN [2]): 7.15 µM

COC(=O)c1cncc(N2CCC(=O)NC2=O)c1 [ILB-72, Methyl 5-(2,4-dioxotetrahydropyrimidin-1(2H)-yl)nicotinate]
AC50 (CRBN [1]; [4]): 18 µM
AC50 (CRBN [2]; [5]): 29.4 µM

O=C1CCN(c2cncc(O)c2)C(=O)N1 [ILB-77, 1-(5-Hydroxypyridin-3-yl)dihydropyrimidine-2,4(1H,3H)-dione]
AC50 (CRBN [1]; [4]): 0.3 µM
AC50 (CRBN [2]; [5]): 0.5 µM

O=C1CCN(c2cncc(Br)c2)C(=O)N1 [ILB-76, 1-(5-Bromopyridin-3-yl)dihydropyrimidine-2,4(1H,3H)-dione]
AC50 (CRBN [1]; [4]): 15.3 µM
AC50 (CRBN [2]; [5]): 8.09 µM

Cc1ccc(N2CCC(=O)NC2=O)cc1CNC(=O)CCCCN(C)Cc1ccc(-c2cc3c(-c4cc(F)cc(NC(=O)c5ccc(C(C)(C)O)cc5F)c4C)ncnc3[nH]2)cc1 [Compound 08, N-(3-(6-(4-(((5-((5-(2,4-dioxotetrahydropyrimidin-1(2H)-yl)-2-methylbenzyl)amino)-5-oxopentyl)(methyl)amino)methyl)phenyl)-7H-pyrrolo[2,3-d]pyrimidin-4-yl)-5-fluoro-2-methylphenyl)-2-fluoro-4-(2-hydroxypropan-2-yl)benzamide]
AC50 (CRBN [3]): 2.1 µM
BTK degradation Amax (BTK): 55.1%
DC50 (BTK): > 3.33 µM

CNS(=O)(=O)c1ccc(N(C)C)c(Nc2ncnc3cc(OCCCN4CCN(C(=O)N5CCN(CCC#Cc6ccc(N7CCC(=O)NC7=O)cc6)CC5)CC4)ccc23)c1 [Compound 21, 4-(dimethylamino)-3-((7-(3-(4-(4-(4-(4-(2,4-dioxotetrahydropyrimidin-1(2H)-yl)phenyl)but-3-yn-1-yl)piperazine-1-carbonyl)piperazin-1-yl)propoxy)quinazolin-4-yl)amino)-N-methylbenzenesulfonamide]
TNNI3K degradation (western blot) (hTNNI3K WT): full degradation
concentration from which no residual TNNI3K was detected (hTNNI3K WT): 6 nM

CNS(=O)(=O)c1ccc(N(C)C)c(Nc2ncnc3cc(OCCCN4CCC5(CC4)CN(CC#Cc4ccc(N6CCC(=O)NC6=O)cc4)CCO5)ccc23)c1 [Compound 22, 4-(dimethylamino)-3-((7-(3-(4-(3-(4-(2,4-dioxotetrahydropyrimidin-1(2H)-yl)phenyl)prop-2-yn-1-yl)-1-oxa-4,9-diazaspiro[5.5]undecan-9-yl)propoxy)quinazolin-4-yl)amino)-N-methylbenzenesulfonamide]
TNNI3K degradation (western blot) (hTNNI3K WT): full degradation
concentration from which no residual TNNI3K was detected (hTNNI3K WT): 32 nM

C=C(C)c1cncc(N2CCC(=O)NC2=O)c1 [ILB-74, 1-(5-(Prop-1-en-2-yl)pyridin-3-yl)dihydropyrimidine-2,4(1H,3H)-dione]
AC50 (CRBN [1]; [4]): 4.61 µM
AC50 (CRBN [2]; [5]): 6.28 µM

COc1cc(C(=O)N2CCC(OC3CCN(Cc4ccc(-c5cc6c(-c7cc(F)cc(NC(=O)c8ccc(C(C)(C)O)cc8F)c7C)ncnc6[nH]5)cc4)CC3)CC2)ccc1N1CCC(=O)NC1=O [Compound 24, N-(3-(6-(4-((4-((1-(4-(2,4-Dioxotetrahydropyrimidin-1(2H)-yl)-3-methoxybenzoyl)piperidin-4-yl)oxy)piperidin-1-yl)methyl)phenyl)-7H-pyrrolo[2,3-d]pyrimidin-4-yl)-5-fluoro-2-methylphenyl)-2-fluoro-4-(2-hydroxypropan-2-yl)benzamide]
AC50 (CRBN [3]): 5.19 µM
BTK degradation Amax (BTK): 55.7%
DC50 (BTK): 0.024 µM

Cc1c(NC(=O)c2ccc(C(C)(C)O)cc2F)cc(F)cc1-c1ncnc2[nH]c(-c3ccc(CNCCCCCCOc4cccc(N5CCC(=O)NC5=O)c4)cc3)cc12 [Compound 14, N-(3-(6-(4-(((6-(3-(2,4-Dioxotetrahydropyrimidin-1(2H)-yl)phenoxy)hexyl)amino)methyl)phenyl)-7H-pyrrolo[2,3-d]pyrimidin-4-yl)-5-fluoro-2-methylphenyl)-2-fluoro-4-(2-hydroxypropan-2-yl)benzamide]
AC50 (CRBN [3]): 0.504 µM
BTK degradation Amax (BTK): 25.9%
DC50 (BTK): 0.0259 µM
